The values below are quoted from earlier work in patent US20220313139A1, “APPARATUSES AND METHODS FOR IDENTIFICATION AND TREATMENT OF PATIENTS RESPONSIVE TO ANTIPSYCHOTIC AGENT THERAPY” (priority 2019, published 2022).

For data set [1] the following is noted: in humans.
Data set [2] has as its system patients. The settings on record: early phase II monotherapy trial.
Data set [3] deals with patients. The settings on record: clinical studies, halted.

For the compound `N[C@@]1(C(=O)O)CS(=O)(=O)[C@H]2[C@H](C(=O)O)[C@H]21` [pomaglumetad], in data set [1], the “oral absorption and bioavailability” value is “low oral absorption and bioavailability”.

For the compound `CSCC[C@H](N)C(=O)N[C@@]1(C(=O)O)CS(=O)(=O)[C@H]2[C@H](C(=O)O)[C@H]21` [poma, Pomaglumetad methionil], the “dosage shown to be efficacious” value in the data set with patients [2] was 40 mg BID. Also, in the data set with patients [3], the “efficacy versus placebo as determined with PANSS total scores” value is recorded as “not significantly more efficacious than the placebo”.
